Assays:
[1] = system: co-culture of mCherry HEK cells and GFP-TgUPRT variant HEK cells; experiment: Co-culture specificity, dot blot of biotinylated total RNA (CuAAC or IEDDA); format: cell-based; settings: 5 hours
Procedure: Co-culture of HEK cells containing GFP or mCherry expression plasmids: HEK293 (5×105) cells seeded in 6-well plate. Thirty-six hour post seeding, HEK cells were transfected with 1 μg of single plasmid containing EGFP, mCherry, EGFP-TgUPRT-WT, or EGFP-TgUPRT-Mut. Twenty-four hour post transfection, transiently transfected HEK cells were trypsinized and seeded into a 5 cm plate. Equal amounts of cells (approximately 2×106 in total) where 1×10^6 cells containing GFP or GFP-TgUPRT plasmids and 1×10^6 cells containing mCherry construct) were co-cultured. Three co-culture conditions are Condition (A): mCherry and EGFP, Condition (B): mCherry and EGFP-WT-TgUPRT, and Condition (C): mCherry and EGFP-3×MT-TgUPRT (pKN-CMV-EGFP-TgUPRT-Mut16 or -Mut17). Sixteen hours post seeding, the co-cultures were treated with 5EU and 5VU for 5 hours at 200 μM and 500 μM final concentration, respectively. Cell imaging was performed to assess the overall distribution of green and red cells in each co-culture. Once imaging was done, cells were harvested and subjected to RNA isolation. Total RNA isolated from the co-culture was subjected to biotinylation by two click methods: (1) CuAAC to assess 5EU incorporation in RNA and (2) IEDDA to assess 5VU incorporation in RNA. Subsequently, biotinylated RNA was subjected to dot blot analysis. […]

[2] = system: mutant TgUPRT (triple mutants 3×MT, M166A/A168G/Y228A and M166A/A168G/Y228G) in HEK293 cells; experiment: In-cell RNA incorporation by mutant TgUPRT, streptavidin dot blot; format: cell-based, Toxoplasma gondii
Procedure: Transfection, labeling of cellular RNA and RNA isolation: After 48h seeding, HEK293 cells were transfected with 2.5 μg of TgUPRT WT or mutant plasmids (pKN-CMV-TgUPRT-WT or -Mutt to Mut17) per 5 cm plate using JetPrime Transfection reagent (Polyplus Transfection, France). At 40h post-transfection, cells were incubated with a final concentration of 200 μM at <1% DMSO from 400 mM stock of uracil analogs (5EU, 5VU, 5AU) or 200 mM SAMU stock for 5 h. For time course study, HEK cells were treated with 200 μM uracil analogs for 0 h, 0.5, 1, 3, 5, 12 and 24 hours. For titrating uracil analog concentration experiments, HEK cells were treated with 0 (DMSO), 50, 100, 200, 500 μM or 1 mM uracil analog for 5h. Treated HEK cells were subjected to total RNA extraction using 1 mL Trizol Reagent (Invitrogen) following the manufacturer instructions.
Biotinylation via CuAAC and IEDDA: Cu-mediated Azide-Alkyne cycloaddition (CuAAC) click reactions were performed in 50 μL reaction at 22° C. on a shaker for 30 min with click reaction cocktail containing 15 μg of total RNA, 1 mM biotin alkyne or biotin azide, fresh 4.6 mM THPTA to a final concentration of 1 mM, and fresh 10.6 mM sodium ascorbate (NaAsc) at final concentration of 1.77 mM, and 12 mM CuSO4 at final concentration of 200 μM in biotinylation reaction buffer (10 mM TrisHCI, 1 mM EDTA, pH7.4). The biotinylated RNA was purified using RNA clean & Concentrator-5 kit (Zymo Research, Cat #R1013) according to the manufacturer instructions and eluted in 21 μL of nuclease free water.
Inverse electron demand [4+2] Diels-Alder cycloaddition (IEDDA) click reactions were performed in 50 μL at 37° C. or 22° C. (RT) for 3h on mixer at 500 rpm containing 10-15 μg of total RNA, 1 mM final concentration of biotin-benzyl tetrazine (Sigma Aldrich, Cat #793329-5MG) in nuclease free water. Clicked total RNA was purified using RNA clean & Concentrator-5 kit (Zymo Research, Cat #R1013) according to the manufacturer instructions, and RNA was eluted in 21 μL of nuclease free water.
HRP-streptavidin dot blot analysis: All gel reagents were from Bio-Rad. […]

Q: Which “incorporation into RNA in the absence of TgUPRT (co-culture dot blot)” value ([1]; 200 μM 5EU with 500 μM 5VU) does the source give for `C#Cc1c[nH]c(=O)[nH]c1=O` [compound 1, 5-ethynylpyrimidine-2,4(1H,3H)-dione] here?
A: The value was “detectable signal”.

Q: How did the “analog incorporation over time with mutant TgUPRT enzymes” value ([2]; 200 μM time course to 24 h, in comparison to wild-type) turn out when `C=Cc1c[nH]c(=O)[nH]c1=O` [compound 2, 5-Vinylpyrimidine-2,4(1H,3H)-dione] was run?
A: The value was “much more robust over time”.

Q: And the “time at which analog incorporation was observed” value ([2]; 200 μM time course, dot blot, FIG. 9B)?
A: The value was 0.5 hr.

Q: And the “incorporation into RNA by triple mutants (3×MT)” value ([2]; 200 μM, 5 hours, HEK293T)?
A: The value was “robust incorporation”.

Q: What about the “incorporation into RNA mediated by GFP-3×MT-TgUPRT (co-culture dot blot)” value ([1]; 500 μM 5VU with 200 μM 5EU) of the same compound?
A: Its value is “substantially”.

Reference: patent publication US20240117431A1, “STEM-CELL BASED BIOMARKER DISCOVERY” (THE REGENTS OF THE UNIVERSITY OF CALIFORNIA, priority 2020, published 2024)
